In US7517658B2, “Methods for preparing compositions using a SNORF33 receptor” (H. Lundbeck A/S, priority 1999, dated 2009):
“And” between values parts separate entries of the source, which are not always exact repeats. Equal values may be shown once.

How the values were obtained:
[1] = target: T1, mouse SNORF33 (Mus musculus, UniProt Q923Y8); test: [3H]-TYR binding (saturation and displacement) to mouse SNORF33 COS-7 membranes; details: mouse SNORF33, displacement of [3H]TYR; read-out: Ki (individual determinations)
T1 construct: expressed in transfected cells; host or cells: COS-7 (membranes)
Experimental: (§1) [^3H]-TYR and [^3H]-T binding assays were performed essentially as described by Mallard et al. (1992), with minor modifications. Radioligand binding assays were performed by diluting membranes prepared from cells expressing the receptor (with co-expression of the rat G-protein alpha S subunit for human SNORF33) in 25 mM Gly-Gly buffer (Sigma, pH=7.4 @ 0° C.) containing 5 mM ascorbate and 10 μM pargyline (final protein concentration in assay=100-300 μg/ml). Membranes were then incubated with either [^3H]-TYR (American Radiochemicals, specific activity 60 mCi/μmole) or [^3H]-T (Amersham, specific activity 98 mCi/μmole) in the presence or absence of competing ligands on ice for 30 min in a total volume of 250 μl in 96 well microtiter plates. The bound ligand was separated from free by filtration through GF/B filters presoaked in 0.5% polyethyleneimine (PEI), using Tomtec (Wallac) or Brandel Cell Harvester vacuum filtration device. After addition of Ready Safe (Beckman) scintillation fluid, bound radioactivity was quantitated using a Trilux (Wallac) scintillation counter (approximately 20% counting efficiency of bound counts). Data was fit to non-linear curves using GraphPad Prism.
(§2) In this manner, agonist or antagonist compounds that bind to the receptor may be identified as they inhibit the binding of the labeled ligand to the membrane protein of cells expressing the said receptor. Non-specific binding was defined as the amount of radioactivity remaining after incubation of membrane protein in the presence of 10 μM of the unlabeled amine corresponding to the radioligand used. In equilibrium saturation binding assays, membrane preparations or intact cells transfected with the receptor are incubated in the presence of increasing concentrations of the labeled compound to determine the binding affinity of the labeled ligand. The binding affinities of unlabeled compounds may be determined in equilibrium competition binding assays, using a fixed concentration of labeled compound in the presence of varying concentrations of the displacing ligands.

[2] = target: T1, mouse SNORF33; test: cAMP assay at mouse SNORF33; type: cell-based
Experimental: (§3) The receptor-mediated stimulation or inhibition of cyclic AMP (cAMP) formation may be assayed in cells expressing the mammalian receptors. Cells are plated in 96-well plates or other vessels and preincubated in a buffer such as HEPES buffered saline (NaCl (150 mM), CaCl2 (1 mM), KCl (5 mM), glucose (10 mM)) supplemented with a phosphodiesterase inhibitor such as 5 mM theophylline, with or without protease inhibitor cocktail (For example, a typical inhibitor cocktail contains 2 μg/ml aprotinin, […] leupeptin, and 10 μg/ml phosphoramidon.) for 20 min at 37° C., in 5% CO2. Test compounds are added with or without […] forskolin and incubated for an additional 10 min at 37° C. The medium is then aspirated and the reaction stopped by the addition of 100 mM HCl or other methods. The plates are stored at 4° C. for 15 min, and the cAMP content in the stopping solution is measured by radioimmunoassay. Radioactivity may be quantified using a gamma counter equipped with data reduction software. Specific modifications may be performed to optimize the assay for the receptor or to alter the detection method of cAMP.
(§4) COS-7 cells were transiently transfected with rSNORF33 gene using the calcium phosphate method and plated in 96-well plates. 48 hours after transfection, cells were washed twice with Dulbecco's phosphate buffered saline (PBS) supplemented with 10 mM HEPES, 10 mM glucose, 5 mM theophylline and 10 μM pargyline and were incubated in the same buffer for 20 min at 37° C., in […] 5% CO2. Test compounds were added and cells were incubated for an additional 10 min at 37° C. The medium was then aspirated and the reaction stopped by the addition of 100 mM HCl. The plates were stored at −20° C. for 2-5 days. For cAMP measurement, plates were thawed and the cAMP content in each well was measured by radioimmunoassay cAMP Scintillation Proximity Assay (Amersham Pharmacia Biotech). Radioactivity was quantified using microbeta Trilux counter (Wallac).

[3] = target: T2, rSNORF33 (Rattus norvegicus, UniProt Q923Y9); test: Intracellular cAMP release in rSNORF33-transfected COS-7 cells; type: cell-based; design: expressed in transfected cells; host or cells: COS-7 (transient)
Experimental: as §3, §4

[4] = target: T2, rSNORF33; test: [3H]-TYR binding (saturation and displacement) to rSNORF33-transfected COS-7 membranes; design: expressed in transfected cells; host or cells: COS-7 (transient); details: rSNORF33 in transfected COS-7 membranes; 2–4 experiments; read-out: Mean Ki ± S.D.M., displacement of [3H]-tyramine
Experimental: as §1, with “Radioligand” for “[^3H]-TYR and [^3H]-T binding assays were performed essentially as described by Mallard et al. (1992), with minor modifications. Radioligand”
as §2

[5] = target: T3, hSNORF33 (Homo sapiens, UniProt Q96RJ0); test: [3H]-TYR binding (saturation and displacement) to human SNORF33 COS-7 membranes; design: expressed in transfected cells; host or cells: COS-7 (membranes); details: human SNORF33 in transfected COS-7 membranes; read-out: Mean Ki ± S.D.M., displacement of [3H]-tyramine
T3 sequence (Q96RJ0 1-339): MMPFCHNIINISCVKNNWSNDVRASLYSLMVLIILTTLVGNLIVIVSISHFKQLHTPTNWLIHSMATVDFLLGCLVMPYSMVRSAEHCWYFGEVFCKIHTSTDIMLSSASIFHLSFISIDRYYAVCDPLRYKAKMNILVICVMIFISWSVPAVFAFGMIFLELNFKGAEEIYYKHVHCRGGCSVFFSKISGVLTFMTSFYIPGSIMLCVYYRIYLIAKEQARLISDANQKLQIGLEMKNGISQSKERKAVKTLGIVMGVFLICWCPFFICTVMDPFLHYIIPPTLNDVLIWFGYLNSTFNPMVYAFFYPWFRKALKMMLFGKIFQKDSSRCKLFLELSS
Experimental: as §1, §2

[6] = target: T3, hSNORF33; test: Intracellular cAMP release in human SNORF33-transfected COS-7 cells; type: cell-based; design: expressed in transfected cells; host or cells: COS-7 (transient)
Experimental: as §3, §4

T1 sequence (Q923Y8 whole entry): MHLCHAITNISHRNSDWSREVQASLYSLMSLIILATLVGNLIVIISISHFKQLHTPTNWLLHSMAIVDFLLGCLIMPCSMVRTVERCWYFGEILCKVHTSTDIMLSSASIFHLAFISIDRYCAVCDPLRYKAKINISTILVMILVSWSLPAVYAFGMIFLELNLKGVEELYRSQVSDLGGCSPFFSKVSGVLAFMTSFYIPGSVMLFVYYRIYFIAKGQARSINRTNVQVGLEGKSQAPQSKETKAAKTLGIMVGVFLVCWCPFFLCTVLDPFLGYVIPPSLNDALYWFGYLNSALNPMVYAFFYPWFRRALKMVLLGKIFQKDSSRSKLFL
T2 sequence (Q923Y9 whole entry): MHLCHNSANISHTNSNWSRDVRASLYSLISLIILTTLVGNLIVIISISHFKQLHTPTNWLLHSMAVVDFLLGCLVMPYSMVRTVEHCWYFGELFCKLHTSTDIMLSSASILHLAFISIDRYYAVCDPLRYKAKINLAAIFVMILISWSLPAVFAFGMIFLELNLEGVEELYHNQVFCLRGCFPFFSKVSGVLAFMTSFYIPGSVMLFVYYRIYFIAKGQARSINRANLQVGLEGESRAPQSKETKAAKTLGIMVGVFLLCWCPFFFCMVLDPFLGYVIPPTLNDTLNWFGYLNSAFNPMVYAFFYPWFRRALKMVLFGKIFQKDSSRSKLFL

In the case of `NCCc1ccccc1` [β-Phenylethylamine (PEA), β-Phenylethylamine], the Ki [1] is reported as 19 nM and 47 nM, the “Agonism in the cAMP assay” value [2] is reported as “full agonists” and the EC50 [3] is reported as 10 ± 1 nM. For the same compound, the Ki [4] was 56 ± 21 nM, the Ki [5] was 8 ± 6 nM and the EC50 [6] was 216 ± 149 nM.
